From patent US6706692B1, “6-deoxy erythromycin derivatives, method for preparing same and use as medicines” (Aventis Pharma S.A., priority 1998, dated 2004)

What was measured:
Assay in all cases: Method of dilutions in liquid medium (M.I.C.)
Type in all cases: cell-based
Conditions in all cases: reading after 24 hours, 37° C.
[1] = tested on: S. agalactiae 02B1SJ1c
Procedure: (§1) A—Method of Dilutions in Liquid Medium A series of tubesis prepared in which the same quantity of nutritive sterile medium is distributed. Increasing quantities of the product to be studied are distributed into each tube, then each tube is sown with a bacterial strain. After incubation for twenty-four hours in a heating chamber at 37° C., the growth inhibition is evaluated by transillumination, which allows the minimal inhibitory concentrations (M.I.C.) to be determined, expressed in micrograms/cm^3. The following results were obtained with the product of the example: (reading after 24 hours)

[2] = tested on: S. mitis 02MitGR16i
Procedure: as §1

[3] = tested on: S. mitis 02MitCB1
Procedure: as §1

[4] = tested on: Streptococcus gr;G 02GOGR5
Procedure: as §1

[5] = tested on: S. agalactiae 02B1HT1
Procedure: as §1

[6] = tested on: S. pneumoniae 030RO1i
Procedure: as §1

[7] = tested on: S. aureus 011UC4
Procedure: as §1

[8] = tested on: S. pneumoniae 030SJ5i
Procedure: as §1

[9] = tested on: E. faecium 02D3HT1
Procedure: as §1

[10] = tested on: E. faecalis 02D2UC1
Procedure: as §1

[11] = tested on: S. pneumoniae 030PW23c
Procedure: as §1

[12] = tested on: S. pneumoniae 032UC1
Procedure: as §1

[13] = tested on: S. pneumoniae 030GR20
Procedure: as §1

“3-de[2,6-dideoxy-3-C-methyl-3-0-methyl-alpha-L-ribo-hexopyranosyl)-oxy]-3-oxo-12,11-[oxycarbonyl[[4-[4-(3-pyridinyl)-1H-imidazol-1-yl]-butyl]-imino]]-6,11,12-trideoxy-erythromycin [product of the example]” was tested, and the “minimal inhibitory concentrations (M.I.C.)” value [1] was 2.500 micrograms/cm^3, the “minimal inhibitory concentrations (M.I.C.)” value [2] was 0.300 micrograms/cm^3 and the “minimal inhibitory concentrations (M.I.C.)” value [3] was 0.040 micrograms/cm^3. The “minimal inhibitory concentrations (M.I.C.)” value [4] was 0.040 micrograms/cm^3, the “minimal inhibitory concentrations (M.I.C.)” value [5] was “<+0.02 micrograms/cm^3” and the “minimal inhibitory concentrations (M.I.C.)” value [6] was 0.600 micrograms/cm^3. The “minimal inhibitory concentrations (M.I.C.)” value [7] was 0.300 micrograms/cm^3, the “minimal inhibitory concentrations (M.I.C.)” value [8] was 0.600 micrograms/cm^3 and the “minimal inhibitory concentrations (M.I.C.)” value [9] was 0.040 micrograms/cm^3. For the same substance, the “minimal inhibitory concentrations (M.I.C.)” value [10] was 0.080 micrograms/cm^3, the “minimal inhibitory concentrations (M.I.C.)” value [11] was 0.300 micrograms/cm^3 and the “minimal inhibitory concentrations (M.I.C.)” value [12] was “<=0.02 micrograms/cm^3”. For the same substance, the “minimal inhibitory concentrations (M.I.C.)” value [13] was 0.600 micrograms/cm^3.
